Test results: publication PMC9948168, “Vanillin-Based Indolin-2-one Derivative Bearing a Pyridyl Moiety as a Promising Anti-Breast Cancer Agent via Anti-Estrogenic Activity” (ACS Omega, 2023)

Columns and labels:
Experiment in all cases: NCI-60 one-dose screening
Assay type in all cases: cell-based
[1] = system: HT29; settings: Homo sapiens, HT-29, HT29, Colon Cancer, read-out: GI (%)
Protocol: (§1) Compounds 5a–c and 6a–o were tested using standard NCI protocols for in vitro activity at the National Cancer Institute (NCI, Bethesda, Maryland, USA), wherein compounds were tested using one single concentration of 10 μM against 60 cell lines of nine different cancer types. […] Excellent activity was observed against a single NSCLC cell line, EKVX, for compounds 5a–c (GIs = 77–86%, Table 1) with no observed activity for indoles with substituted vanillin 6a–o.
(§2) Anticancer activity was tested against 60 cancer cell lines at the NCI, Bethesda, USA. The screening process was done with a single dosage of 10 μM according to NCI protocols published on the NCI website https://dtp.cancer.gov/discovery_development/nci-60/methodology.htm.

[2] = system: EKVX; settings: Homo sapiens, Non-Small Cell Lung Cancer, read-out: GI (%)
Protocol: as §1, §2

[3] = system: SF-268; settings: Homo sapiens, SF-268, CNS Cancer, read-out: GI (%)
Protocol: as §1, §2

[4] = system: HS 578T; settings: Homo sapiens, Breast Cancer, read-out: GI (%)
Protocol: as §1, §2

[5] = system: OVCAR-3; settings: Homo sapiens, OVCAR-3, 10 μM; OVCAR-3, Ovarian Cancer; read-out: GI (%)
Protocol: as §1, §2

[6] = system: DU-145; settings: Homo sapiens, DU-145, Prostate Cancer, read-out: GI (%)
Protocol: as §1, §2

[7] = system: KM12; settings: Homo sapiens, KM12, Colon Cancer, read-out: GI (%)
Protocol: as §1, §2

[8] = system: UO-31; settings: Homo sapiens, UO-31, Renal Cancer, read-out: GI (%)
Protocol: as §1, §2

[9] = system: UACC-62; settings: Homo sapiens, UACC-62, Melanoma, read-out: GI (%)
Protocol: as §1, §2

[10] = system: MDA-MB-468; settings: Homo sapiens, MDA-MB-468, Breast Cancer, read-out: GI (%)
Protocol: as §1, §2

[11] = system: NCI/ADR-RES; settings: Homo sapiens, Ovarian Cancer, read-out: GI (%)
Protocol: as §1, §2

[12] = system: MDA-MB-231/ATCC; settings: Homo sapiens, Breast Cancer, read-out: GI (%)
Protocol: as §1, §2

[13] = system: PC-3; settings: Homo sapiens, PC-3, Prostate Cancer, read-out: GI (%)
Protocol: as §1, §2

[14] = system: IGROV1; settings: Homo sapiens, IGROV-1, IGROV1, Ovarian Cancer, read-out: GI (%)
Protocol: as §1, §2

[15] = system: MALME-3M; settings: Homo sapiens, Melanoma, read-out: GI (%)
Protocol: as §1, §2

[16] = system: HCT-116; settings: Homo sapiens, HCT-116, Colon Cancer, read-out: GI (%)
Protocol: as §1, §2

[17] = system: HOP-62; settings: Homo sapiens, HOP-62, Non-Small Cell Lung Cancer, read-out: GI (%)
Protocol: as §1, §2

[18] = system: RPMI-8226; settings: Homo sapiens, RPMI-8226, Leukemias, read-out: GI (%)
Protocol: as §1, §2

[19] = system: NCI-H522; settings: Homo sapiens, NCI-H522, Non-Small Cell Lung Cancer, read-out: GI (%)
Protocol: as §1, §2

[20] = system: T-47D; settings: Homo sapiens, T47D, Breast Cancer, read-out: GI (%)
Protocol: as §1, §2

[21] = system: U251; settings: Homo sapiens, U-251, U251, CNS Cancer, read-out: GI (%)
Protocol: as §1, §2

[22] = system: HOP-92; settings: Homo sapiens, HOP-92, Non-Small Cell Lung Cancer, read-out: GI (%)
Protocol: as §1, §2

[23] = system: NCI-H23; settings: Homo sapiens, NCI-H23, Non-Small Cell Lung Cancer, read-out: GI (%)
Protocol: as §1, §2

[24] = system: 786-0; settings: Homo sapiens, 786-0, Renal Cancer, read-out: GI (%)
Protocol: as §1, §2

[25] = system: SK-MEL-5; settings: Homo sapiens, SK-MEL-5, Melanoma, read-out: GI (%)
Protocol: as §1, §2

[26] = system: SR; settings: Homo sapiens, Leukemias, read-out: GI (%)
Protocol: as §1, §2

[27] = system: HCC-2998; settings: Homo sapiens, HCC-2998, Colon Cancer, read-out: GI (%)
Protocol: as §1, §2

[28] = system: SN12C; settings: Homo sapiens, Renal Cancer, read-out: GI (%)
Protocol: as §1, §2

[29] = system: SK-MEL-28; settings: Homo sapiens, SK-MEL-28, Melanoma, read-out: GI (%)
Protocol: as §1, §2

[30] = system: SF-539; settings: Homo sapiens, SF-539, CNS Cancer, read-out: GI (%)
Protocol: as §1, §2

[31] = system: SNB-75; settings: Homo sapiens, SNB-75, CNS Cancer, read-out: GI (%)
Protocol: as §1, §2

[32] = system: OVCAR-8; settings: Homo sapiens, OVCAR-8, Ovarian Cancer, read-out: GI (%)
Protocol: as §1, §2

[33] = system: SF-295; settings: Homo sapiens, SF-295, CNS Cancer, read-out: GI (%)
Protocol: as §1, §2

[34] = system: LOX IMVI; settings: Homo sapiens, Melanoma, read-out: GI (%)
Protocol: as §1, §2

[35] = system: NCI-H460; settings: Homo sapiens, NCI-H460, Non-Small Cell Lung Cancer, read-out: GI (%)
Protocol: as §1, §2

Row | Structure (SMILES) | inhibition at 10 µM [1] | inhibition at 10 µM [2] | inhibition at 10 µM [3] | inhibition at 10 µM [4] | inhibition at 10 µM [5] | inhibition at 10 µM [6] | inhibition at 10 µM [7] | inhibition at 10 µM [8] | inhibition at 10 µM [9] | inhibition at 10 µM [10] | inhibition at 10 µM [11] | inhibition at 10 µM [12] | inhibition at 10 µM [13] | inhibition at 10 µM [14] | inhibition at 10 µM [15] | inhibition at 10 µM [16] | inhibition at 10 µM [17] | inhibition at 10 µM [18] | inhibition at 10 µM [19] | inhibition at 10 µM [20] | other results
1 | COc1cc(C=C2C(=O)Nc3cc(Cl)ccc32)ccc1OCc1ccc(Cl)cc1 (mixture of isomers) [6l] | -5.54% | 24.8% | -5.63% | 4.96% | -3.06% | -3.93% | 3.74% | 22.2% | 11.1% | 4.61% | 0.31% | 8.37% | 11.1% | 27.7% | 2.26% | 5.08% | 4.49% | 11.9% | 4.01% | 14.8% | inhibition at 10 µM [21]: -5.85%; inhibition at 10 µM [22]: 15.3%; inhibition at 10 µM [23]: 0.58%; inhibition at 10 µM [24]: -7.1%; inhibition at 10 µM [25]: 1.7%; inhibition at 10 µM [26]: 4.64%; inhibition at 10 µM [27]: -18.5%; inhibition at 10 µM [28]: 1.62%; inhibition at 10 µM [29]: -1.11%; inhibition at 10 µM [30]: 8.46%; inhibition at 10 µM [31]: -3.14%; inhibition at 10 µM [32]: 2.85%; inhibition at 10 µM [33]: 2.01%; inhibition at 10 µM [34]: -8.24%; inhibition at 10 µM [35]: 9.67%
2 | COc1cc(/C=C2/C(=O)Nc3cc(Cl)ccc32)ccc1O [5c] | -0.03% | 77.2% | 21.8% | 50.9% | 25.8% | -1.46% | 6.51% | 39.5% | 41.5% | 28.5% | 11.5% | 50.8% | 21.6% | 36.6% | 8.69% | 30.9% | 29.2% | 17.9% | 25.4% | 49.2% | inhibition at 10 µM [21]: 33.5%; inhibition at 10 µM [22]: 24.8%; inhibition at 10 µM [23]: 11.6%; inhibition at 10 µM [24]: 2.08%; inhibition at 10 µM [25]: 29.1%; inhibition at 10 µM [26]: 43.3%; inhibition at 10 µM [27]: 0.25%; inhibition at 10 µM [28]: 15.2%; inhibition at 10 µM [29]: 1.11%; inhibition at 10 µM [30]: 39.8%; inhibition at 10 µM [31]: 59.5%; inhibition at 10 µM [32]: 13%; inhibition at 10 µM [33]: 15.8%; inhibition at 10 µM [34]: 22.7%; inhibition at 10 µM [35]: 8.53%
3 | COc1cc(/C=C2/C(=O)Nc3ccccc32)ccc1OCc1ccc(Cl)cc1 [6b] | -8.68% | 4.66% | 1.43% | -4.77% | -5.51% | 1.33% | 0.38% | 18.7% | 12.4% | -1.64% | -0.22% | 1% | 5.22% | -2.14% | 4.51% | 13.1% | -0.91% | 2.49% | 4.25% | -6.94% | inhibition at 10 µM [21]: -7%; inhibition at 10 µM [22]: -12.5%; inhibition at 10 µM [23]: 6.66%; inhibition at 10 µM [24]: -6.18%; inhibition at 10 µM [25]: -2.87%; inhibition at 10 µM [26]: 6.17%; inhibition at 10 µM [27]: -23.5%; inhibition at 10 µM [28]: -2.93%; inhibition at 10 µM [29]: 7.06%; inhibition at 10 µM [30]: 1.99%; inhibition at 10 µM [31]: -3.58%; inhibition at 10 µM [32]: -1.64%; inhibition at 10 µM [33]: -2.92%; inhibition at 10 µM [34]: 0.22%; inhibition at 10 µM [35]: 58.9%
